In patent publication US20120172292A1, “METHOD FOR PROTECTION OF ANTIMICROBIAL AND ANTICANCER DRUGS FROM INACTIVATION BY NITRIC OXIDE” (NEW YORK UNIVERSITY, priority 2009, published 2012):
“And” between values parts separate entries of the source, which are not always exact repeats. Equal values may be shown once.

Columns and labels:
Streptococcus = details: cited from earlier work
B.subtilis [1] = test: Growth of B.subtilis with ACR or AO premixed with NO donor; format: cell-based
Streptococcus C203 = details: cited from earlier work
B.subtilis [2] = format: cell-based
S. aureus = details: cited from earlier work
B.subtilis 6051 and Δnos = format: cell-based; details: 25 μg/ml cefuroxime
S.aureus 4220 and Δnos = format: cell-based; details: 0.4 μg/ml CEF
B.anthracis [3] = format: cell-based
B. subtilis = format: cell-based
B.anthracis [4] = format: cell-based; details: CuFL 20 μM

Q: With Nc1c2ccccc2nc2cc([N+](=O)[O-])ccc12 [3-nitro-9-aminoacridine] as the molecule, how does the MIC (Streptococcus) read?
A: The MIC was 1.5 μM and ~0.4 μg/ml.

Q: Which results are given for CN(C)c1ccc2cc3ccc(N(C)C)cc3nc2c1 [AO, acridine orange]?
A: effect of NO treatment on antibacterial activity (B.subtilis [1]): unaffected by NO treatment; antibacterial effect compared with ACR (B.subtilis [1]; 10 μg/ml): significantly less than that of ACR

Q: Which “sensitivity of hepatocytes to AMSAcrine after inhibition of cellular NOS” value (HepG2 human hepatocytes; 4 mM L-NAME 8 hours prior to 20 μM AMSAcrine) does the source give for COC(=O)[C@@H](N)CCCNC(=N)N[N+](=O)[O-] [L-NAME, N G -nitro-L-arginine methyl ester] here?
A: Its value is “increased sensitization”.

Q: For COc1cc2c(N)c3ccc([N+](=O)[O-])cc3[n+]([O-])c2cc1OC [9-Amino-2,3-dimethoxy-6-nitroacridine 10-oxides], which MIC (Streptococcus C203) is on record?
A: The MIC was 20 nM and ~6 ng/ml.

Q: Which “effect of pretreatment on toxicity of ACR” value (B.subtilis [2]) does the source give for c1ccc(-c2ccccn2)nc1 [bipyridyl] here?
A: Its value is “substantially decreased the toxicity of ACR”.

Q: For Cc1cc2cc3ccc(N(C)C)cc3[n+](C)c2cc1N.[Cl-] [Flavicid], which MIC (S. aureus) is on record?
A: Its MIC is 10 μM and ~2.6 μg/ml.

Q: What does the source list for CO/N=C(\C(=O)N[C@@H]1C(=O)N2C(C(=O)O)=C(COC(N)=O)CS[C@H]12)c1ccco1 [cefuroxime]?
A: killing of nos deficient versus wt cells (B.subtilis 6051 and Δnos): much more efficiently than wt cells; growth inhibition of nos-deficient versus wild type cells (S.aureus 4220 and Δnos): much greater extent; killing of nos deficient versus wt cells (B.anthracis [3]): much more efficiently than wt cells; end products of NO oxidation (nitrite/nitrate) in growing culture after challenge (B. subtilis): increase; NO production after antibiotic challenge (B.anthracis [4]): greatly stimulated NO production

Q: Which “cell survival, AMSAcrine preincubated with exogenous NO versus AMSAcrine alone” value (HepG2 human hepatocytes; 20 μM AMSAcrine, 100 μM MAHMA NONOate, viability 24 hours later) does the source give for COc1cc(NS(C)(=O)=O)ccc1Nc1c2ccccc2nc2ccccc12 [AMSAcrine] here?
A: Its value is 5.5 fold.
